The melting point is the temperature, or range, at which the solid turns liquid.

With `Cc1cnn(-c2ccc(C(=O)N3C=C4CC=CN4Cc4ccccc43)cc2)c1`, the melting point is 179 to 181 °C.

In the case of `CC(=O)c1ccc(OCc2ccccc2)c(OC/C=C/CN2CCC(c3noc4cc(F)ccc34)CC2)c1`, the melting point is 124 to 125 °C.

In turn, `O=S(=O)(c1ccccc1)n1cc(I)c2c(OCc3ccccc3)ccnc21` displayed a melting point of 177 to 179 °C.

`Cc1nc(OCCCc2cc(OC(C)C)nn2Cc2ccc(Cl)cc2Cl)c(CC#N)s1` showed a melting point of 92 to 93 °C.

Compound `O=C(O)CCc1cc2cc(C(=O)c3ccccc3)ccc2n1S(=O)(=O)c1ccccc1` displayed a melting point of 138 °C.

Take `Cc1cc(CCCCCOc2c(Cl)cc(-c3nnn[nH]3)cc2Cl)on1`: the melting point fell in the range of 122 to 123 °C.

`CCCCCCCCCc1ccc(-c2nc(C)c(C(C)=NNC(=N)N)s2)cc1` showed a melting point of 203 to 206 °C.

On to `NNc1ccc2c(c1)CCNC2=O`, for which the melting point is 158 to 160 °C.

Regarding `CCCCOC(=O)C(=O)Nc1cc(C#N)cc(NC(=O)C(=O)OCCCC)c1Cl`, the melting point lay within 118 to 120 °C.

In the case of `Cc1ccc(-c2cncc(OC3SCC(O)C(O)C3O)c2)cc1C` (stereo unspecified), the melting point came to 184 °C.

For the compound `CCCOC1(OC)C=CC=C(N2CCC(c3noc4cc(F)ccc34)CC2)C1O` (stereo unspecified), the melting point is 134 to 135 °C.

Regarding `Nc1ccc(F)cc1Nc1ccc(F)cc1`, the melting point lay in the range of 83 to 84 °C.

With `CCOc1c(CCl)c(CCl)c(OCC)c2ccccc12`, the melting point is 110 °C.

As to `CC(=O)Nc1ccc(CC(=S)N2CCOCC2)cc1`, the melting point lay within 210 to 212 °C.

Compound `CC(COC(=O)C(=O)Nc1nc(-c2ccccc2)cs1)c1ccccc1` (stereo unspecified) gave a melting point of 140 to 141 °C.

With `CON(C)C(=O)c1ccc(Cl)c(Cl)c1`, the melting point was 39.5 to 43.2 °C.

The compound `CC(OC(=O)OCC(=O)N(C)C)OC(=C1C(=O)N(C(N)=O)c2cc(Cl)c(F)cc21)c1cccs1` (stereo unspecified) had a melting point of 194 to 196 °C.

Turning to `COc1ccc2[nH]c(C(N)=O)c(OC(C)C)c2c1`, the melting point was in the range of 138 to 140 °C.

The compound `Nc1nc(N)c(-c2ccc(Cl)cc2Cl)c(COCc2ccccc2)n1` showed a melting point of 171 to 172 °C.

For the compound `FC(F)(F)c1cc(Cl)c(-c2nc(Br)c[nH]2)c(Cl)c1`, the melting point is 224 to 225 °C.

As to `C=CCc1c(N2C(=O)C3=C(CCCC3)C2=O)ccc(Cl)c1O`, the melting point fell in the range of 80 to 82.5 °C.

In the case of `CCCCCCCCCCCCCCCCOC(=O)C=CC(=O)NC(N)=O`, the melting point turned out to be 106 °C.

As for `CC1(C)Oc2ccc(C#N)cc2C(Oc2ccc(O)nn2)C1(C)O` (stereo unspecified), the melting point was in the range of 131 to 134 °C.

`Cc1ccccc1C(=O)Nc1ccc(C(=O)O)cc1` came in with a melting point of 270 to 275 °C.

`COc1cccc(C=O)c1OCc1ccccc1`: the melting point lay within 41 to 43 °C.

In turn, `NC(=O)N(O)CCOc1ccc2c(c1)CCN(CCCc1ccccc1)S2(=O)=O` returned a melting point of 134 to 135 °C.

On to `CCCCNC(=O)NCCC`, for which the melting point was in the range of 70 to 72 °C.

`COc1cc(Nc2nc3cccc(-c4cccc(C)c4)c3o2)cc(OC)c1OC` gave a melting point of 153 to 155 °C.

In turn, `Cc1cnc2nc(S(=O)(=O)Cl)nn2c1` displayed a melting point of 106 to 108 °C.

`COc1ccc(CN2C(=O)[C@H](CO)[C@H]2S(=O)(=O)C(C)(C)C)cc1` had a melting point of 121 to 122 °C.

As to `CCOC(=O)CCCc1oc(=O)[nH]c1-c1ccc(Cl)s1`, the melting point was in the range of 95 to 96 °C.

In turn, `O=C(O)CCc1cn(Cc2cc(OCc3csc(-c4ccccc4)n3)cc(OCc3csc(-c4ccccc4)n3)c2)cc1-c1ccccc1` showed a melting point of 78 to 79 °C.

`CC(C)n1c(CCN2CCN(c3cccc(C(F)(F)F)c3)CC2)nc2cc(Br)c3ccccc3c21`: the melting point was in the range of 161 to 162 °C.

`COC(=O)c1cccc(-c2ccoc2C(F)F)c1` gave a melting point of 55 to 56 °C.

In turn, `CC(C)(C)NCC(O)COc1ccccc1-c1nc(C(F)(F)F)c[nH]1` (stereo unspecified) came in with a melting point of 105 to 107 °C.

Consider `CC(=O)CC(=O)N1CC(c2ccccc2)c2ccccc21` (stereo unspecified), for which the melting point was 88 to 89 °C.

Values taken from a melting point compilation (Tetko et al.; mined from patent text by program, amines drawn as free bases though some values may be those of a salt).
